Assay results as given in EP4570798A1, “AROMATIC HETEROCYCLIC CYCLOHEXYL AMINOALKYL PIPERIDINE DERIVATIVE, PREPARATION METHOD AND USE THEREOF” (Jiangsu NHWA Pharmaceutical Co., Ltd, priority 2022, dated 2024).
pEC50: −log10 of the molar value.

Experiments:
Dopamine D3 receptor = target: T1, Dopamine D3 receptor (Homo sapiens, UniProt P35462); experiment: In vitro dopamine D3 receptor function experiment (CHO-K1/D3/CRE reporter, chemiluminescence); assay type: cell-based; conditions: for pEC50: forskolin 0.4 µM; for Emax: maximum activation rate
T1 construct: expressed in transfected cells; host or cells: CHO-K1
Description: 3.1.1 Cell information: CHO-K1/D3/CRE constructed by referring to the method in Example 5 of CN114369578A.
The first day: cell plating • (1) The cultured cells were digested with trypsin, and after the digestion was terminated with culture medium, the cell suspension was transferred to a centrifuge tube and centrifuged at 750 rpm for 5 min. • (2) The supernatant was discarded, and the pellet was resuspended in an appropriate amount of plating medium.
The following day: experimental detection • (1) The test compounds were diluted to 0.2 mM with DMSO, and the reference compound dopamine was diluted to 0.02 mM. • (2) Compound dilution (4-fold dilution at 8 concentration points) was performed using Bravo, with the starting concentrations of the test compounds and the reference compound being 5 µM and 500 nM, respectively. […] The program selected was an ultrasensitive chemiluminescence detection program.

[1] = In vitro liver microsome stability, human; conditions: for CLint(liver): Human liver microsomes; for CLint scaled at 1 µM / half-life at 1 µM / microsomal CLint at 1 µM: human, liver microsomes, pH 7.4
Description: (§1) • (1) Buffer preparation: 73.21 g of dipotassium hydrogen phosphate trihydrate and 10.78 g of potassium dihydrogen phosphate were dissolved in 4000 mL of ultrapure water. The pH of the solution was adjusted to within 7.40 ± 0.10 using 10% phosphoric acid or 1 M potassium hydroxide, resulting in a final concentration of 100 mM. • (2) Solution preparation and dilution: Stock solutions of the test compounds at a concentration of 10 mM were prepared in dimethyl sulfoxide (DMSO) and stored at 4 °C, and they were diluted into 100 µM working solutions with pure acetonitrile when used. A stock solution of the control compound testosterone at a concentration of 10 mM was prepared in DMSO and stored at -20 °C, and it was diluted into a 400 µM working solution with pure acetonitrile when used. • (3) Termination solution preparation: The termination solution was acetonitrile containing the internal standard buspirone. The prepared termination solution was stored in a refrigerator at 2-8 °C. • (4) Liver microsome solution preparation: Microsomes from various species (CD-1 mouse, SD rat, and human) were diluted into a 20× working solution using 100 mM potassium phosphate buffer. The final concentration of the microsomes in the reaction system was 0.5 mg/mL. • (5) Reduced nicotinamide adenine dinucleotide phosphate (NADPH) regeneration system preparation: Appropriate amounts of nicotinamide adenine dinucleotide phosphate (NADP), glucose-6-phosphate (G6P), magnesium chloride (MgCl2), and glucose-6-phosphate dehydrogenase (G6PDH) were weighed to prepare stock solutions at concentrations of 65.33 mM, 330 mM, 300 mM, and 250 Units/mL, respectively. The four stock solutions described above were each added to an appropriate amount of buffer, and the mixture was mixed well by gently inverting up and down. […] Several incubation plates were prepared and named T0, T5, T10, T20, T40, T60, PB60, and NCF60, respectively. […] The NCF60 plate was incubated for 60 min with potassium phosphate buffer replacing the NADPH regeneration system solution. The PB60 plate was incubated for 60 min with potassium phosphate buffer replacing the liver microsomes. Samples under all conditions were prepared in triplicate.
(§2) 2 µL of the test compound or control compound and 100 µL of microsome working solution (containing 1 mg/mL liver microsome protein) were added to each of the T0, T5, T10, T20, T40, T60, and NCF60 plates, and 2 µL of the test compound and 100 µL of potassium phosphate buffer were added to the PB60 plate. The plates described above were then pre-incubated in a 37 °C water bath for about 5 min.
(§3) After the pre-incubation, 600 µL of the termination solution was first added to the T0 samples, followed by the addition of 98 µL of NADPH regeneration system working solution. The plate was sealed, shaken, and then allowed to wait for simultaneous processing with subsequent samples. Except for the NCF60 plate where 98 µL of potassium phosphate buffer was added to each sample well, 98 µL of NADPH regeneration system working solution was added to each sample well of the other incubation plates to initiate the reaction. In the reaction system, the final concentrations of the test compound and the control compound were 1 µM and 4 µM, respectively, the concentration of the liver microsomes was 0.5 mg/mL, and the final concentrations of DMSO and acetonitrile were 0.01% (v/v) and 0.99% (v/v), respectively.
(§4) After incubation for an appropriate time (such as 5, 10, 20, 40, and 60 min), 600 µL of the termination solution containing the internal standard was added to each test compound sample and control compound well to terminate the reaction. The plates were sealed, shaken well, and then centrifuged at 4000 ×g and 4 °C for 15 min.

[2] = In vitro liver microsome stability, SD rat; conditions: for CLint(liver): SD rat liver microsomes; for CLint scaled at 1 µM / half-life at 1 µM / microsomal CLint at 1 µM: SD, rat, liver microsomes, pH 7.4
Description: as §1, §2, §3, §4

[3] = In vitro liver microsome stability, CD-1 mouse; conditions: for CLint scaled at 1 µM / half-life at 1 µM / microsomal CLint at 1 µM: CD-1, mouse, liver microsomes, pH 7.4; for CLint(liver): CD-1 mouse liver microsomes
Description: as §1, §2, §3, §4

5-HT1A = target: T2, 5-HT1A (Homo sapiens, UniProt P08908); experiment: In vitro 5HT1A receptor function experiment (cAMP, forskolin-stimulated HEK293/5HT1A cells); assay type: cell-based; set-up: expressed in transfected cells; host or cells: HEK293; conditions: for pEC50: forskolin 1 µM; for Emax: maximum activation rate
T2 sequence (P08908 1-422): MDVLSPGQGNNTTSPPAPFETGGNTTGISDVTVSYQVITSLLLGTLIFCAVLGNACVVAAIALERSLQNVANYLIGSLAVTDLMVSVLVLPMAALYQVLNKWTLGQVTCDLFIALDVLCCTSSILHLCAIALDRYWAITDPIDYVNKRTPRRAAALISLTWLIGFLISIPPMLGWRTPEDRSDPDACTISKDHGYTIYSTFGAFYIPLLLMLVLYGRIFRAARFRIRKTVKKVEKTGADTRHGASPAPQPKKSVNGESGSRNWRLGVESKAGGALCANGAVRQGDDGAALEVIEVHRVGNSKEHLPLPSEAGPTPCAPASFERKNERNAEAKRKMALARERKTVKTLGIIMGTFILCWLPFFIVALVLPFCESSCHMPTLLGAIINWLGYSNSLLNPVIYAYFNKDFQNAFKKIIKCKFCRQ
Description: 1.1.1 Cell information: HEK293/5HT1A: a stably transfected cell strain HEK293/5HT1A constructed by adopting 5HT1A receptor lentivirus to infect HEK293; growth culture medium: DMEM, 10% FBS, and 0.6 µg/mL puro; and cryopreservation culture medium: 70% culture medium, 20% FBS, and 10% DMSO.

T1 sequence (P35462 whole entry, species assumed): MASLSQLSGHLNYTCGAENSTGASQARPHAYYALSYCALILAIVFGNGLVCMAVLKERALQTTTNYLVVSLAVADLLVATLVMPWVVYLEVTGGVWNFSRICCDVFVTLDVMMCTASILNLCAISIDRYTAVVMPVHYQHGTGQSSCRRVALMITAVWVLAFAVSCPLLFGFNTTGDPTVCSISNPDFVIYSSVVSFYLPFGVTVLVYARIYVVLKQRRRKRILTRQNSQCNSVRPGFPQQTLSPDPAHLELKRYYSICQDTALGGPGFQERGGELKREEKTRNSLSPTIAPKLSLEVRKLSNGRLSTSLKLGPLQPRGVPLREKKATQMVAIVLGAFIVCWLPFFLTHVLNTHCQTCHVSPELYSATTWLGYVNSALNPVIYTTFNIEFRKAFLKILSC

Row | pEC50 (Dopamine D3 receptor) | Emax (Dopamine D3 receptor) [%] | pEC50 (5-HT1A) | Emax (5-HT1A) [%] | Structure (SMILES) | further results
1 | 8.54 | 122 | – | – | CCCN(CC1CCN(c2cccc(Cl)c2Cl)CC1)[C@H]1CCc2nc(N)sc2C1 [Example 7, (S)-N^6-((1-(2,3-Dichlorophenyl)piperidin-4-yl)methyl)-N^6-propyl-4,5,6,7-tetrahydrobenzo[d]thiazole-2,6-diamine] | –
2 | 8.68 | 111 | 7.52 | 101 | CCCN(CC1CCN(c2cccc3sccc23)CC1)[C@H]1CCc2nc(N)sc2C1 [Example 9, (S)-N^6-((1-(Benzo[b]thiophen-4-yl)piperidin-4-yl)methyl)-N^6-propyl-4,5,6,7-tetrahydrobenzo[d]thiazole-2,6-diamine] | CLint(liver) [1]: 33.4 mL/min/K g; CLint scaled at 1 µM [1]: 8.9 to 48.3 mL/min/kg; half-life at 1 µM [1]: 37.4 min; microsomal CLint at 1 µM [1]: 37.1 µL/min/mg; CLint(liver) [2]: 89.1 mL/min/K g; CLint scaled at 1 µM [2]: 23.7 to 129 mL/min/kg; half-life at 1 µM [2]: 28 min; microsomal CLint at 1 µM [2]: 49.5 µL/min/mg; CLint scaled at 1 µM [3]: 38.6 to 210 mL/min/kg; half-life at 1 µM [3]: 28.2 min; microsomal CLint at 1 µM [3]: 49.1 µL/min/mg; CLint(liver) [3]: 194.5 mL/min/K g
3 | 8.48 | 109 | 6.88 | 92.6 | CCCN(CC1CCN(c2cccc3sccc23)CC1)[C@@H]1CCc2nc(N)sc2C1 [Example 11, (R)-N^6-((1-(Benzo[b]thiophen-4-yl)piperidin-4-yl)methyl)-N^6-propyl-4,5,6,7-tetrahydrobenzo[d]thiazole-2,6-diamine] | –
4 | – | – | 7.50 | 115 | CCCN(CC1CCN(c2cccc3sccc23)CC1)C1CCc2nc(N)sc2C1 (stereo not drawn) [Example 12, N^6-((1-(Benzo[b]thiophen-4-yl)piperidin-4-yl)methyl)-N^6-propyl-4,5,6,7-tetrahydrobenzo[d]thiazole-2,6-diamine] | –
5 | 8.52 | 133 | 7.44 | 118 | CCN(CC1CCN(c2cccc3sccc23)CC1)[C@H]1CCc2nc(N)sc2C1 [Example 13, (S)-N^6-((1-(Benzo[b]thiophen-4-yl)piperidin-4-yl)methyl)-N^6-ethyl-4,5,6,7-tetrahydrobenzo[d]thiazole-2,6-diamine] | –
6 | – | – | 8.33 | 85.1 | CCCN(CC1CCN(C(=O)c2ccc(F)c(Cl)c2)CC1)[C@H]1CCc2nc(N)sc2C1 [Example 15, (S)-(4-(((2-Amino-4,5,6,7-tetrahydrobenzo[d]thiazol-6-yl)(propyl)amino)methyl)piperidin-1-yl)(3-chloro-4-fluorophenyl)methanone] | –
7 | – | – | 6.84 | 93.7 | CCCN(CCC1CCN(C(=O)c2ccc(F)c(Cl)c2)CC1)[C@H]1CCc2nc(N)sc2C1 [Example 16, (S)-(4-(2-((2-Amino-4,5,6,7-tetrahydrobenzo[d]thiazol-6-yl)(propyl)amino)ethyl)piperidin-1-yl)(3-chloro-4-fluorophenyl)methanone] | –
8 | – | – | 7.32 | 115 | CCCN(CC1CCN(C(=O)c2ccc(F)c(Cl)n2)CC1)[C@H]1CCc2nc(N)sc2C1 [Example 18, (S)-(4-(((2-Amino-4,5,6,7-tetrahydrobenzo[d]thiazol-6-yl)(propyl)amino)methyl)piperidin-1-yl)(6-chloro-5-fluoropyridin-2-yl)methanone] | –
9 | – | – | 6.73 | 99.5 | CCCN(CC1CCN(C(=O)c2ccc(F)nc2)CC1)[C@H]1CCc2nc(N)sc2C1 [Example 19, (S)-(4-(((2-Amino-4,5,6,7-tetrahydrobenzo[d]thiazol-6-yl)(propyl)amino)methyl)piperidin-1-yl)(6-fluoropyridin-3-yl)methanone] | –
10 | – | – | 6.88 | 115 | CCCN(CC1CCN(C(=O)c2ccc(C#N)nc2)CC1)[C@H]1CCc2nc(N)sc2C1 [Example 20, (S)-5-(4-(((2-Amino-4,5,6,7-tetrahydrobenzo[d]thiazol-6-yl)(propyl)amino)methyl)piperidine-1-carbonyl)pyridinecarbonitrile] | –
11 | 8.89 | 105 | – | – | CCCN(CC1CCN(C(=O)c2cc3ccccc3[nH]2)CC1)[C@H]1CCc2nc(N)sc2C1 [Example 21, (S)-(4-(((2-Amino-4,5,6,7-tetrahydrobenzo[d]thiazol-6-yl)(propyl)amino)methyl)piperidin-1-yl)(1H-indol-2-yl)methanone] | –
12 | – | – | 7.00 | 115 | CCCN(CC1CCN(C(=O)c2cc3ccccc3s2)CC1)[C@H]1CCc2nc(N)sc2C1 [Example 22, (S)-(4-(((2-Amino-4,5,6,7-tetrahydrobenzo[d]thiazol-6-yl)(propyl)amino)methyl)piperidin-1-yl)(benzo[b]thiophen-2-yl)methanone] | –
13 | – | – | 6.69 | 101 | CCCN(CC1CCN(C(=O)c2ccc3ccccc3c2)CC1)[C@H]1CCc2nc(N)sc2C1 [Example 23, (S)-(4-(((2-Amino-4,5,6,7-tetrahydrobenzo[d]thiazol-6-yl)(propyl)amino)methyl)piperidin-1-yl)(naphthalen-2-yl)methanone] | –
14 | – | – | 7.12 | 96.5 | CCCN(CC1CCN(C(=O)c2cccs2)CC1)[C@H]1CCc2nc(N)sc2C1 [Example 24, (S)-(4-(((2-Amino-4,5,6,7-tetrahydrobenzo[d]thiazol-6-yl)(propyl)amino)methyl)piperidin-1-yl)(thiophen-2-yl)methanone] | CLint(liver) [1]: 34.3 mL/min/K g; CLint scaled at 1 µM [1]: 8.9 to 48.3 mL/min/kg; half-life at 1 µM [1]: 36.4 min; microsomal CLint at 1 µM [1]: 38.1 µL/min/mg; CLint(liver) [2]: 75.2 mL/min/K g; CLint scaled at 1 µM [2]: 23.7 to 129 mL/min/kg; half-life at 1 µM [2]: 33.2 min; microsomal CLint at 1 µM [2]: 41.8 µL/min/mg; CLint scaled at 1 µM [3]: 38.6 to 210 mL/min/kg; half-life at 1 µM [3]: 46.9 min; microsomal CLint at 1 µM [3]: 29.6 µL/min/mg; CLint(liver) [3]: 117.1 mL/min/K g
15 | 8.89 | 106 | 7.38 | 112 | CCCN(CC1CCN(C(=O)c2ccco2)CC1)[C@H]1CCc2nc(N)sc2C1 [Example 25, (S)-(4-(((2-Amino-4,5,6,7-tetrahydrobenzo[d]thiazol-6-yl)(propyl)amino)methyl)piperidin-1-yl)(furan-2-yl)methanone] | –
16 | 8.92 | 109 | 7.79 | 103 | CCCN(CC1CCN(C(=O)c2ccc[nH]2)CC1)[C@H]1CCc2nc(N)sc2C1 [Example 26, (S)-(4-(((2-Amino-4,5,6,7-tetrahydrobenzo[d]thiazol-6-yl)(propyl)amino)methyl)piperidin-1-yl)(1H-pyrrol-2-yl)methanone] | –
17 | – | – | 7.06 | 99.9 | CCCN(CC1CCN(C(=O)c2cncs2)CC1)[C@H]1CCc2nc(N)sc2C1 [Example 27, (S)-(4-(((2-Amino-4,5,6,7-tetrahydrobenzo[d]thiazol-6-yl)(propyl)amino)methyl)piperidin-1-yl)(thiazol-5-yl)methanone] | CLint(liver) [1]: 14.7 mL/min/K g; CLint scaled at 1 µM [1]: 8.9 to 48.3 mL/min/kg; half-life at 1 µM [1]: 84.9 min; microsomal CLint at 1 µM [1]: 16.3 µL/min/mg; CLint(liver) [2]: 25.5 mL/min/K g; CLint scaled at 1 µM [2]: 23.7 to 129 mL/min/kg; half-life at 1 µM [2]: 97.9 min; microsomal CLint at 1 µM [2]: 14.2 µL/min/mg; CLint scaled at 1 µM [3]: 38.6 to 210 mL/min/kg; half-life at 1 µM [3]: 85.8 min; microsomal CLint at 1 µM [3]: 16.2 µL/min/mg; CLint(liver) [3]: 64.0 mL/min/K g
18 | 8.55 | 111 | 6.97 | 118 | CCCN(CC1CCN(C(=O)C2CCCCC2)CC1)[C@H]1CCc2nc(N)sc2C1 [Example 29, (S)-(4-(((2-Amino-4,5,6,7-tetrahydrobenzo[d]thiazol-6-yl)(propyl)amino)methyl)piperidin-1-yl)(cyclohexyl)methanone] | –
19 | – | – | 7.40 | 125 | CCCN(CC1CCN(S(=O)(=O)c2ccccc2)CC1)[C@H]1CCc2nc(N)sc2C1 [Example 30, (S)-N^6-((1-(Phenylsulfonyl)piperidin-4-yl)methyl)-N^6-propyl-4,5,6,7-tetrahydrobenzo[d]thiazole-2,6-diamine] | –
20 | 8.44 | 103 | 6.91 | 120 | CCCN(CC1CCN(S(=O)(=O)c2ccc(F)c(Cl)c2)CC1)[C@H]1CCc2nc(N)sc2C1 [Example 31, (S)-N^6-((1-((3-Chloro-4-fluorophenyl)sulfonyl)piperidin-4-yl)methyl)-N^6-propyl-4,5,6,7-tetrahydrobenzo[d]thiazole-2,6-diamine] | –
